From patent publication US20170224662A1 (priority 2016, published 2017)
Converted amounts (≈) assume the structure as drawn. Like-named read-outs stand apart in the source and are kept apart here.

How the values were obtained:
physchem = assay type: physicochemical; conditions: thermodynamic from solid
Protocol: A study was conducted to evaluate whether buffer concentration affects the maximum solubility of CPMM. […] The solutions were prepared and CPMM was added until saturation was achieved. The pH was controlled by continually titrating the solutions to pH 6 using NaOH. Saturation was determined to have been achieved after the pH had stabilized and undissolved remained in the vial after overnight shaking. Solubility was evaluated by taking two separate samplings over the course of two days to verify that saturation had been achieved. Solubility was measured when the formulations were at room temperature, as well as tested when the formulations were under sub-ambient conditions (2-8° C.) to evaluate whether the solubility would be affected at lower temperatures for long term storage at (2-8° C.).

[1] = 1- and 2-week accelerated stability of CPMM (~0.3 mg/mL) in aqueous pH buffer media, HPLC purity; assay type: physicochemical; conditions: for CPMM % Purity: t = 0
Protocol: The aqueous CPMM pH 1-9 samples described above were diluted as necessary to approximately 0.3 mg/mL and placed on accelerated stability at 25° C./60% relative humidity and 40° C./75% relative humidity conditions for two weeks. Samples were pulled at t=0, 1, and 2 weeks from set-up, and analyzed by HPLC. Samples were diluted to approximately 0.3 mg/mL, which well below the HPLC method nominal concentration, due to concerns of precipitation during the two week stability study. The injection volume was increased to compensate for the lower drug concentration in solution. The change in CPMM purity over the study duration is listed in Table 3 and plotted in FIGS. 3-5.
The pH 1 sample was placed on stability at a non-diluted concentration due to an error. This sample was re-diluted at the one-week time point to match the concentration in the pH 2-9 samples and re-placed on stability. The pH 9 sample results were not included in FIGS. 3-5 due to excessive degradation and for easier visual assessment over the more relevant pH 2-8 range.

What does the source list for `COC(=O)C1(OC(=O)c2cncn2[C@H](C)c2ccccc2)CC1` [CPMM, 1-(methoxycarbonyl)cyclopropyl-1-[(1R)-1-phenylethyl]-1H-imidazole-5-carboxylate]?
solubility (physchem; 2 °C, pH 6.02, aqueous with cosolvent or surfactant or cyclodextrin, 10% SBECD in 25 mM Citrate, 2-8° C./ambient RH, pH 6.02, read-out: CPMM Amount (maximum solubility)): 5590 µg/mL (≈ 17.8 mM); solubility (physchem; 2 °C, pH 6.05, aqueous with cosolvent or surfactant or cyclodextrin, 10% SBECD in 10 mM Citrate, 2-8° C./ambient RH, pH 6.05, read-out: CPMM Amount (maximum solubility)): 5480 µg/mL (≈ 17.4 mM); solubility (physchem; pH 5.96, aqueous buffer, 10 mM Citrate, RT/Ambient RH, pH 5.96, read-out: CPMM Amount (maximum solubility)): 300 µg/mL (≈ 0.954 mM); solubility (physchem; pH 5.98, aqueous buffer, 50 mM Citrate, RT/Ambient RH, pH 5.98, read-out: CPMM Amount (maximum solubility)): 230 µg/mL (≈ 0.732 mM); solubility (physchem; pH 5.98, aqueous with cosolvent or surfactant or cyclodextrin, 10% SBECD in 10 mM Citrate, RT/Ambient RH, pH 5.98, read-out: CPMM Amount (maximum solubility)): 5470 µg/mL (≈ 17.4 mM); solubility (physchem; pH 5.98, aqueous with cosolvent or surfactant or cyclodextrin, 10% SBECD in 25 mM Citrate, RT/Ambient RH, pH 5.98, read-out: CPMM Amount (maximum solubility)): 5490 µg/mL (≈ 17.5 mM); solubility (physchem; pH 5.99, aqueous with cosolvent or surfactant or cyclodextrin, 10% SBECD in 50 mM Citrate, RT/Ambient RH, pH 5.99, read-out: CPMM Amount (maximum solubility)): 5680 µg/mL (≈ 18.1 mM); solubility (physchem; pH 6, aqueous buffer, 25 mM Citrate, RT/Ambient RH, pH 6.00, read-out: CPMM Amount (maximum solubility)): 280 µg/mL (≈ 0.891 mM); solubility (physchem; pH 6, aqueous buffer, citrate solutions containing no SBECD, read-out: solubility): ~300 µg/mL (≈ 0.954 mM); solubility (physchem; pH 6, aqueous with cosolvent or surfactant or cyclodextrin, 10% SBECD solutions at all citrate concentrations, regardless of the condition, read-out: solubility): ~5500 µg/mL (≈ 17.5 mM); CPMM % Purity ([1]; 50 mM buffer pH 2 (Phosphoric Acid)): 99.39%; CPMM % Purity ([1]; 50 mM buffer pH 3 (Phosphoric Acid)): 99.33%; CPMM % Purity ([1]; 50 mM buffer pH 4 (Citric Acid)): 98.59%; CPMM % Purity ([1]; 50 mM buffer pH 5 (Citric Acid)): 97.77%; CPMM % Purity ([1]; 50 mM buffer pH 6 (Citric Acid)): 97.55%; CPMM % Purity ([1]; 50 mM buffer pH 7 (Phosphoric Acid)): 98.16%; CPMM % Purity ([1]; 50 mM buffer pH 8 (Phosphoric Acid)): 98.32%; CPMM % Purity ([1]; 50 mM buffer pH 9 (Boric Acid)): 94.98%; Change in CPMM % Purity ([1]; pH 5 (Citric Acid), 25° C./60% RH, t = 1 week): −0.62%; Change in CPMM % Purity ([1]; pH 5 (Citric Acid), 25° C./60% RH, t = 2 week): −1.06%; Change in CPMM % Purity ([1]; pH 5 (Citric Acid), 40° C./75% RH, t = 1 week): −2.16%; Change in CPMM % Purity ([1]; pH 5 (Citric Acid), 40° C./75% RH, t = 2 week): −3.48%; Change in CPMM % Purity ([1]; pH 6 (Citric Acid), 25° C./60% RH, t = 1 week): −0.33%; Change in CPMM % Purity ([1]; pH 6 (Citric Acid), 25° C./60% RH, t = 2 week): −0.55%; Change in CPMM % Purity ([1]; pH 6 (Citric Acid), 40° C./75% RH, t = 1 week): −2.72%; Change in CPMM % Purity ([1]; pH 6 (Citric Acid), 40° C./75% RH, t = 2 week): −3.49%; Change in CPMM % Purity ([1]; pH 7 (Phosphoric Acid), 25° C./60% RH, t = 1 week): −0.39%; Change in CPMM % Purity ([1]; pH 7 (Phosphoric Acid), 25° C./60% RH, t = 2 week): −0.96%
